{
  "source": "patent US20260033466A1",
  "about": "“METHOD AND ANIMAL MODEL FOR INDUCING BCC TUMORS” (FELDAN BIO INC., priority 2022, published 2026)",
  "key": {"BCC tumors": {"test_system": "BCC tumors", "assay": "Anti-BCC treatment of induced BCC mice (tamoxifen/doxycycline and UV-B)", "assay_type": "in vivo, mouse", "conditions": "begun 37-43 weeks post-induction"}, "[1]": {"test_system": "GFP (indicative of Ptch1 and p53 shRNA expression)", "assay": "Immunofluorescence of GFP in skin of BCC mice after induction, no UV-B", "assay_type": "in vivo, mouse", "conditions": "absence of UV, fluorescence microscopy of skin sections, FIG. 4", "description": "Positive GFP fluorescence is indicative of Ptch1 and p53 shRNA expression. […] Positive GFP fluorescence is indicative of Ptch1 and p53 shRNA expression.\nFor histological staining by immunofluorescence, sections were incubated 5 minutes in room temperature PBS to remove the OCT compound and then drained as much as possible. Slides were then blocked in BSA 3% and stained with anti-GFP antibody (ab6556 Abcam) or anti-Ptch1 (ThermoFisher PA5-87508) or anti-CK14 (BioLegend™ #906004) O/N at 4° C. Sections were then washed thrice (5 minutes each) with PBST and incubated with fluorophore-conjugated antibodies. Following washes (3×5 minutes), 100 μL per slide of ProLong™ Glass NucBlue™ (Invitrogen™) were applied and a coverslip. Slides were incubated overnight in the dark prior to imaging. Slides were imaged within 1-4 days after mounting and left in the dark until that time.\nNext, shRNA expression was assessed in the skin of mice, either untreated, or after induction with either tamoxifen alone, doxycycline alone, or tamoxifen/doxycycline in the absence of UV."}, "mouse Ptch1": {"test_system": "mouse Ptch1", "assay": "shRNA knockdown efficiency reporter assay (Yuan et al. 2014)", "assay_type": "cell-based", "conditions": "Ptch1 mRNA expression normalized to shRen713 (positive control); FIG. 2", "method": "Knockdown efficiency was calculated by Ptch1 mRNA expression normalized to shRen713 ([…]).\nKnockdown efficiency was calculated by Ptch1 mRNA expression normalized to shRen713 ([…]), a reporter shRNA targeting Renilla Luciferase 713."}},
  "data": [
    {"molecule": "CO[C@H]1C[C@@H]2CC[C@@H](C)[C@@](O)(O2)C(=O)C(=O)N2CCCC[C@H]2C(=O)O[C@H]([C@H](C)C[C@@H]2CC[C@@H](OCCO)[C@H](OC)C2)CC(=O)[C@H](C)/C=C(\\C)[C@@H](O)[C@@H](OC)C(=O)[C@H](C)C[C@H](C)/C=C/C=C/C=C/1C", "note": "[everolimus]", "values": [
      {"measurement": "tumor appearance (scabbing/crusting)", "setting": "BCC tumors; i.p. 3 mg/kg, after 7-12 days of treatment, FIG. 13", "result": "visible signs of scabbing/crusting of the tumors"}
    ]},
    {"molecule": "CC/C(=C(\\c1ccccc1)c1ccc(OCCN(C)C)cc1)c1ccccc1", "note": "[tamoxifen]", "values": [
      {"measurement": "GFP expression in skin (shRNAs targeting Ptch1 and p53)", "setting": "[1]", "result": "no expression of GFP"}
    ]},
    {"molecule": "CS(=O)(=O)c1ccc(C(=O)Nc2ccc(Cl)c(-c3ccccn3)c2)c(Cl)c1", "note": "[vismodegib]", "values": [
      {"measurement": "tumor appearance (scabbing/crusting)", "setting": "BCC tumors; oral daily via gastric gavage 5 mg/kg, after 18-25 days of treatment, FIG. 12", "result": "visible signs of scabbing/crusting of the tumors"}
    ]},
    {"molecule": "Ptch1.2559: shRNA targeting mouse Ptch1, nucleobases 2776-2796 of SEQ ID NO: 12; selected for the BCC model (nucleic acid) guide: TCATGCCAAACAATTATAAAATAGTGAAGCCACAGATGTATTTTATAATTGTTTGGCATGA", "values": [
      {"measurement": "knockdown efficiency", "setting": "mouse Ptch1", "result": 101.24, "unit": "%"}
    ]}
  ]
}
